Test results published in US20140323354A1, “Chemically Modified Ligase Cofactors, Donors and Acceptors” (priority 2010, published 2014).

Biological target: T1, T4 DNA ligase (Enterobacteria phage T4, UniProt P00970)
T1 construct: purchased New England Biolabs
Assay: Ligation yield with modified ATP cofactors on matched and mismatched templates, PAGE analysis
Assay type: biochemical, bacteriophage T4
Conditions: for discrimination of modified cofactor between matched and mismatched templates: matched T-A versus mismatched C-A, G-A, A-A, panel of ten modified cofactors at 1 mM
Protocol: Each 20 μL reaction was performed in buffer containing 50 mM Tris-HCl (pH 7.5), 10 mM MgCl2, 10 mM dithiothreitol, 25 μg/ml bovine serum albumin. 1 mM ATP was added to the buffer separately. The donor (LP3′T w/PBS), acceptor (Com3F w/PBS), and template (Alg) were at 0.1 μM equimolar amounts. The acceptor, donor, and template were denatured at 95° C. for 3 minutes and annealed at 4° C. for 3 minutes. Ligation was initiated by adding 400 units of T4 ligase (New England Biolabs) to each reaction. Ligation proceeded at 16° C. for 20 minutes. Ligation was terminated by heating the reaction to 65° C. for 10 minutes and adding an equal volume of 2×TBE-Urea buffer (Invitrogen). Samples were run on 6% TBE-Urea Novex gels (Invitrogen). The gels were stained with SYBR Gold nucleic acid stain (Invitrogen) according to manufacturer's protocol.
ATP analogs were compared to the corresponding natural ATP cofactor for their ability to join matched and mismatched templates (FIG. 4). ATP analogs were evaluated for relative ligation yield in the presence of matched template (LP3′T Acceptor w/PBS and Alg template; T-A matched base pair at the 3′-end of the acceptor strand) to the relative yield when a mismatched template was used (LP3′C Acceptor w/PBS and Alg template; C-A mismatched base pair on 3′-end of the acceptor strand). Reactions were performed as described for Example 1, with a cofactor of interest included in the reaction at 1 mM concentration. Natural ATP substrate was compared to the following modified cofactors: 7-deaza-ATP (7-deaza-adenosine-5′-triphosphate), N1-methyl-ATP (N1-methyl-adenosine-5′-triphosphate), 2-amino-ATP (2-amino-adenosine-5′-triphosphate), 2′-amino-2′-deoxy-ATP (2′-amino-2′-deoxyadenosine-5′-triphosphate), 3′-amino-2′,3′-dideoxy-ATP (3′-amino-2′,3′-dideoxy-adenosine-5′-triphosphate) (FIG. 4). All modified cofactors supported ligation with similar efficiency to natural ATP when a matched template was employed.
One method of determining the ligation yield of a ligation component of interest (e.g., modified ligase cofactors, modified donors or modified acceptors) is by assigning a specificity number. Specificity numbers can be determined for example, by dividing the ligation yield of a matched case by the ligation yield of a mismatched case where a single base pair differs relative to the matched case. […] The yields are then normalized to the template readings in the same reaction, with subsequent normalization to the ligation yield for a reaction including the natural (ATP) cofactor, where ATP has a normalized yield of 1.0. For example, in the case of 2′-deoxy-ATP (2′-deoxy-adenosine-5′-triphosphate; FIG. 4), the ligation yield in the matched case (LP3′T Acceptor w/PBS and Alg template; T-A matched base pair on 3′ end of the acceptor strand) was 1.34. In the mismatched case (LP3′C Acceptor w/PBS and Alg template; C-A mismatched base pair on 3′ end of the acceptor strand) the ligation yield was 0.18. Accordingly, the specificity number assigned to 2′-deoxy-ATP in a C-A mismatch case was 1.34÷0.18 or 7.44. A value greater than one is indicative of improved ligation specificity. A value less than one is indicative of reduced ligation specificity.
ATP analogs were compared to the natural ATP cofactor for their ability to join matched and mismatched templates for relative ligation yield in the presence of matched template (LP3′T Acceptor w/PBS and Alg template; T-A matched base pair on 3′-end of the acceptor strand) relative to the yield of templates which contained a mismatched base pair on 3′-end of the acceptor: 1) LP3′C Acceptor w/PBS and Alg template; C-A mismatch, 2) LP3′G Acceptor w/PBS and Alg template; G-A mismatch, and 3) LP3′A Acceptor w/PBS and Alg template; A-A mismatch (FIG. 5). Reactions were performed as described for Example 1, with a cofactor of interest included in the reaction at 1 mM concentration. […]

T1 sequence (P00970 whole entry): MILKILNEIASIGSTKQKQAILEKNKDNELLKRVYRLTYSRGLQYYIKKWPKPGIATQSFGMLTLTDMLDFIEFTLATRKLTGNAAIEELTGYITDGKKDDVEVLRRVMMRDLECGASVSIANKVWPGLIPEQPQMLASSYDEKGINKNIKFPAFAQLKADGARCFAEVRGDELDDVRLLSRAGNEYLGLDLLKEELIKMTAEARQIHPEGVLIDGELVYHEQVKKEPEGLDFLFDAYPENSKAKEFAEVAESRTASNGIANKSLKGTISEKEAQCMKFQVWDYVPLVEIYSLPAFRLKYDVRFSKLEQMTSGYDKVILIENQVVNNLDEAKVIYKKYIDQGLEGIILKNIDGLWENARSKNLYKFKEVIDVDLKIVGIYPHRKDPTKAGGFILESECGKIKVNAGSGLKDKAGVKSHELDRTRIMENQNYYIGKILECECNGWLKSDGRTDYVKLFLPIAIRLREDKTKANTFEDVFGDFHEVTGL

Row | SMILES | ligation yield in the mismatched case (LP3′C Acceptor w/PBS and Alg template, C-A mismatched base pair on 3′ end of acceptor, cofactor 1 mM, normalized to ATP = 1.0) | ligation yield in the matched case (LP3′T Acceptor w/PBS and Alg template, T-A matched base pair on 3′ end of acceptor, cofactor 1 mM, normalized to ATP = 1.0) | specificity number (matched (T-A) yield divided by mismatched (C-A) yield, greater than one = improved ligation specificity) | discrimination of modified cofactor between matched and mismatched templates
1 | Nc1ncnc2c1ncn2[C@H]1C[C@H](O)[C@@H](COP(=O)(O)OP(=O)(O)OP(=O)(O)O)O1 [2′-deoxy-ATP, 2′-deoxy-adenosine-5′-triphosphate] | 0.18 | 1.34 | 7.44 | lead modifications of interest
2 | Nc1ncnc2c1ncn2[C@H]1C[C@H](N)[C@@H](COP(=O)(O)OP(=O)(O)OP(=O)(O)O)O1 [3′-amino-2′,3′-dideoxy-adenosine-5′-triphosphate] |  |  |  | lead modifications of interest
3 | Nc1ncnc2c1ncn2[C@@H]1O[C@H](COP(O)(=S)OP(=O)(O)OP(=O)(O)O)[C@@H](O)[C@H]1O (stereo partly drawn) [5′-alpha-thio-adenosine-5′-triphosphate] |  |  |  | lead modifications of interest
